Experimental data taken from patent US20230203485A1, “METHODS FOR MODULATING MHC-I EXPRESSION AND IMMUNOTHERAPY USES THEREOF” (Dana-Farber Cancer Institute, Inc., priority 2020, published 2023).

System: class I antigen presentation gene expression in MCC cell lines
Assay: RNA-seq / DESeq2 differential expression of MCC cell lines at baseline and after IFN-γ stimulation
Format: cell-based, human
Conditions: 11 MCC cell lines, baseline vs IFNγ, negative LFC = upregulation in IFNγ-treated
Experimental: FIG. 2A comprises RNA-seq heatmaps of class I antigen presentation gene expression in MCC lines and controls.
FIG. 2B is a volcano plot of differentially expressed genes (genes below FDR cutoff 0.01 are shown in yellow) between baseline and IFN-γ-treated MCC cell lines. Differential expression analysis was performed using DESeq2, and negative LFC indicates increased expression in +IFN-γ samples. IFN genes are highlighted in red.
RNA samples were first assessed for quality using the Agilent Bioanalyzer (DV200 metric). One hundred ng of RNA were used as the input for first strand cDNA synthesis using Superscript III reverse transcriptase and Illumina's TruSeq RNA Access Sample Prep Kit. Synthesis of the second strand of cDNA was followed by indexed adapter ligation with UMI (unique molecular index) adaptors. Subsequent PCR amplification enriched for adapted fragments. Amplified libraries were quantified, normalized, pooled, and hybridized with exome targeting oligos. Following hybridization, bead clean-up, elution and PCR was performed to prepare library pools for sequencing on Illumina flowcell lanes. Transcriptomes were sequenced to a coverage of at least 50 million reads in pairs.
Raw fastq files for fibroblast and keratinocyte control lines were downloaded from SRA using R Bioconductor package SRAdb (Mayakonda et al. (2018) supra; Zhu et al. (2013) BMC Bioinformatics 14 (1): 1-4) using accession codes SRP126422 (4 replicates from control samples ‘NN’) and SRP131347 (6 replicates with condition: control and genotype: control). These fastq files, along with those for the mkl1 and waga cell lines, were aligned using STAR version 2.7.3a (Dobin et al. (2013) Bioinformatics 29 (1): 15-21), using index genome reference file downloaded from ftp.ebi.ac.uk/pub/databases/gencode/Gencode_human/release_19/GRCh37.p13.genome.fa.gz, transcript annotation file downloaded from data.broadinstitute.org/snowman/hg19/star/gencode.v19.annotation.gtf, and with the following options: --twopassMode Basic, --outSAMstrandField intronMotif, --alignIntronMax 1000000, --alignMatesGapMax 1000000, --sjdbScore 2, --outSAMtype BAM Unsorted, --outSAMattributes NH HI NM MD AS XS, --outFilterType BySJout, --outSAMunmapped Within, --genomeLoad NoSharedMemory, --outFilterScoreMinOverLread 0, --outFilterMatchNminOverLread 0, --outFilterMismatchNmax 999, and outFilterMultimapNmax 20. Duplicates were marked with picard MarkDuplicates version 2.22.0-SNAPSHOT.
RNA-sequencing bam files for MCC tumor and cell line samples were downloaded from the Broad Genomics Firecloud/Terra platform using the Google Cloud Storage command line tool gsutil version 4.5 (github.com/GoogleCloudPlatform/gsutil/).
Gene counts were obtained from bam files using featureCounts version 2.0.0 (doi.org/10.1093/bioinformatics/btt656). Very lowly expressed genes with average count across samples less than 1 were excluded from analysis. Between-sample distance metrics were computed using the Euclidean distance on the vectors of variance-stabilized counts obtained from the vst function in the DESeq2 R Bioconductor package ([…]; Love et al. (2014) Genome Biology 15 (12): 550).
Differential expression analysis was carried out between (1) viral positive and viral negative samples (adjusting for cell line or tumor as a covariate), (2) cell line and tumor samples (adjusting for viral status as a covariate), and (3) IFNγ plus and minus samples (adjusting for viral status as a covariate) using the negative binomial GLM Wald test of DESeq2, where significance was assessed using the p-values adjusted for multiple comparisons under default settings. To account for potential global gene expression differences among sample groups, RUVg (Risso et al. (2014) […] 32 (9): 896-902) was used to estimate latent factors of unwanted variation from the list of housekeeping genes downloaded from www.tau.ac.il/˜elieis/HKG/HK_genes.txt. […]

IFN-y: type II interferon, recombinant human, used to treat MCC cells
log2FoldChange PLCH1 (ENSG00000114805.12): −3.192
log2FoldChange PLSCR1 (ENSG00000188313.8): −1.918
log2FoldChange PSMA1 (ENSG00000129084.13): −0.53
log2FoldChange PSMA5 (ENSG00000143106.8): −0.7265
log2FoldChange PSMB8 (ENSG00000204264.4): −4.624
log2FoldChange PSMB8-AS1 (ENSG00000204261.4): −4.829
log2FoldChange PSMB9 (ENSG00000240065.3): −8.037
log2FoldChange RAB19 (ENSG00000146955.6): −3.348
log2FoldChange RALB (ENSG00000144118.9): −1.199
log2FoldChange RARRES3 (ENSG00000133321.6): −9.075
log2FoldChange RASGRP3 (ENSG00000152689.13): −3.804
log2FoldChange RCN1 (ENSG00000049449.4): −0.8151
log2FoldChange RNASET2 (ENSG00000026297.11): −1.4
log2FoldChange RNF19B (ENSG00000116514.12): −0.8512
log2FoldChange RPS6KA2-AS1 (ENSG00000231654.1): −4.029
log2FoldChange RSAD2 (ENSG00000134321.7): −4.639
log2FoldChange RTP4 (ENSG00000136514.2): −9.766
log2FoldChange RUFY4 (ENSG00000188282.8): −4.154
log2FoldChange SAMD9L (ENSG00000177409.7): −9.221
log2FoldChange SCYL3 (ENSG00000000457.9): −0.6381
log2FoldChange SERPING1 (ENSG00000149131.11): −10.06
log2FoldChange SERPINI2 (ENSG00000114204.10): −4.132
log2FoldChange SLC15A3 (ENSG00000110446.5): −6.048
log2FoldChange SMCO3 (ENSG00000179256.2): −4.85
log2FoldChange SP100 (ENSG00000067066.12): −6.178
log2FoldChange SP110 (ENSG00000135899.12): −5.912
log2FoldChange SP140 (ENSG00000079263.14): −4.071
log2FoldChange SP140L (ENSG00000185404.12): −4.749
log2FoldChange SPATA1 (ENSG00000122432.12): −1.828
log2FoldChange SRD5A3-AS1 (ENSG00000249700.4): −1.935
log2FoldChange STAT1 (ENSG00000115415.14): −4.434
log2FoldChange STAT2 (ENSG00000170581.9): −2.028
log2FoldChange SYNJ2 (ENSG00000078269.9): −1.182
log2FoldChange TAP1 (ENSG00000168394.9): −6.326
log2FoldChange TAP2 (ENSG00000204267.9): −4.845
log2FoldChange TAPBP (ENSG00000231925.7): −2.025
log2FoldChange TAPBPL (ENSG00000139192.7): −2.548
log2FoldChange TCAF2 (ENSG00000170379.15): −3.033
log2FoldChange TDRD7 (ENSG00000196116.6): −0.8648
log2FoldChange TLR3 (ENSG00000164342.8): −6.019
log2FoldChange TMEM108-AS1 (ENSG00000251011.1): −3.649
log2FoldChange TMEM140 (ENSG00000146859.6): −7.381
log2FoldChange TNFRSF14 (ENSG00000157873.13): −3.995
log2FoldChange TNFSF10 (ENSG00000121858.6): −4.43
log2FoldChange TRIM5 (ENSG00000132256.14): −4.923
log2FoldChange TRIM21 (ENSG00000132109.8): −5.586
log2FoldChange TRIM22 (ENSG00000132274.11): −9.394
log2FoldChange TRIM26 (ENSG00000234127.4): −0.6803
log2FoldChange TRIM56 (ENSG00000169871.8): −2.411
log2FoldChange UBA7 (ENSG00000182179.6): −5.004
log2FoldChange UBE2L6 (ENSG00000156587.11): −4.982
log2FoldChange UBR2 (ENSG00000024048.6): −0.9247
log2FoldChange USP33 (ENSG00000077254.10): −0.3836
log2FoldChange USP42 (ENSG00000106346.7): −0.5211
log2FoldChange WDR49 (ENSG00000174776.6): −4.564
log2FoldChange ZC3HAV1 (ENSG00000105939.8): −1.2
log2FoldChange (ACP5 ENSG00000102575.6): −3.911
log2FoldChange (B2M ENSG00000166710.13): −3.927
log2FoldChange (BCO1 ENSG00000135697.5): −3.705
log2FoldChange (BST2 ENSG00000130303.8): −9.567
log2FoldChange (C19orf38 ENSG00000214212.4): −2.581
log2FoldChange (C19orf66 ENSG00000130813.13): −3.602
log2FoldChange (CAPN3 ENSG00000092529.18): −1.639
log2FoldChange (CCDC194 ENSG00000269720.1): −5.08
log2FoldChange (CCL8 ENSG00000108700.4): −4.991
log2FoldChange (CCL25 ENSG00000131142.9): −5.742
log2FoldChange (CEACAM1 ENSG00000079385.17): −6.01
log2FoldChange (CIITA ENSG00000179583.13): −10.08
log2FoldChange (CX3CL1 ENSG00000006210.6): −2.039
log2FoldChange (DGLUCY ENSG00000133943.16): −1.417
log2FoldChange (DHX58 ENSG00000108771.8): −3.063
log2FoldChange (DLGAP1-AS5 ENSG00000261520.1): −7.006
log2FoldChange (DOCK9 ENSG00000088387.13): −1.102
log2FoldChange (DRAM1 ENSG00000136048.9): −2.646
log2FoldChange (ENSG00000225131.1 (symbol NA)): −1.967
log2FoldChange (ENSG00000238045.5 (symbol NA)): −1.974
log2FoldChange (ENSG00000238528.1 (symbol NA)): −1.287
log2FoldChange (ENSG00000258733.1 (symbol NA)): −3.393
